Counter-ions that a name gives are not always drawn. Like-named read-outs stand apart in the source and are kept apart here.
Columns and labels:
ALS(SOD1^H46R) mice = test: Post-onset oral administration in ALS(SOD1^H46R) mice: motor function, body weight, survival; assay type: in vivo; settings: for balance beam test: duration from onset to the day the mouse was unable to stay on the bar: n = 26, mean ± SEM (vehicle 20.7±0.7); for survival interval after onset: n = 26, mean ± SD (vehicle 36.6±6.2)
From the text: Transgenic mice carrying the H46R mutation in the human SOD1 gene; SOD1^H46R were used as a familial ALS mouse model. […] Since the genetic background is one of the important factors modulating disease phenotypes in mutant SOD1 transgenic mice, we first generated a congenic line of ALS(SOD1^H46R) transgenic mice by backcrossing more than 15 generations to B6 mice.
The lines were maintained as hemizygotes by mating ALS(SOD1^H46R) and ALS(SOD1^G93A) males with B6 females. Offspring were genotyped by PCR using genomic DNA from tail tissue. Mice were housed at 23°C with a 12 h light/dark cycle, in which water and food was available ad libitum. The condition of each animal was monitored weekly initially and then daily after disease onset. The lifespan was determined by the days from disease onset to the endpoint, in which mouse lost active and/or spontaneous movement. All animal experimental procedures were approved by the Institutional Animal Care and Use Committee at Tokai University.
WN1316 was dissolved in MQ water, and diluted with physiological saline. ALS(SOD1^H46R) transgenic mice were given WN1316 via gastric tube (CAT.No.4202, Fuchigami) at a dose of either 1 µg, 10 µg or 100 µg/5 ml/kg body weight. ALS(SOD1^G93A) transgenic mice were given 10 µg/kg WN1316. Animals simultaneously treated with physiological saline (vehicle group, 5 ml/kg) were used as controls.
To determine the onset of motor dysfunction in ALS(SOD1^H46R) transgenic mice, we adopted a balance beam test as previously described in detail. To determine the onset of motor dysfunction in ALS(SOD1^G93A) transgenic mice, we adopted both balance beam and grip strength tests. Grip strength test was assessed using a traction meter (BrainScience Idea Co., Ltd.). Each mouse was given three trials, and the highest limb strength score was recorded. For ALS(SOD1^G93A) transgenic mice, grip strength tests were started at 11 weeks of age and performed twice a week until an over 20% reduction compared with the initial limb strength score at 11 weeks of age was observed. Finally, a grade 3 in the balance beam test and over 20% reduction of limb strength score were defined as the sign of the disease onset in ALS(SOD1^G93A) transgenic mice.
The gross phenotypes were measured blindly. The body weight of each mouse was measured weekly initially and then daily after disease onset. Mice were assessed for gross behavior every week from 12 weeks of age in ALS(SOD1^H46R) mice and from 11 weeks of age in ALS(SOD1^G93A) mice until the endpoint. In particular, hind limb movement and rearing behavior of each animal were monitored weekly from 12 weeks of age until the end stage. The days from the disease onset to the endpoint were counted individually as the survival interval.
We assessed motor performance and coordination, and balance in the mice by the balance-beam test, vertical pole test, and footprint analysis as previously described in detail and grip strength test as described above. In brief, the balance-beam test was performed every day after the onset until mice were unable to stay on the bar. Each mouse was given a maximum of five vertical pole trials using the following two criteria; 1) a cutoff of 45cm and 2) the task was terminated when mouse reached the vertical ascending distance of 45 cm. The highest vertical ascending distance was scored. The footprint trial was conducted at 18 and 21 weeks of age in ALS(SOD1^H46R) mice and at 12, 16, and 20 weeks of age in ALS(SOD1^G93A) mice. Grip strength test of ALS(SOD1^H46R) mice was started at 17 weeks of age and performed once a week.
To evaluate the spontaneous motor activities in mice, we conducted cage activity and rearing performance tests by using SUPERMEX with infrared ray sensor monitor (Muromachi Kikai). […]

[1] = Pharmacokinetics of WN-compounds in mice (brain and serum concentration, HPLC); assay type: in vivo, mouse (C57BL/6N); settings: for Cmax: C57BL/6N mouse, oral 50 mg/kg body weight
Description: Wild type mice at 8 weeks (male, C57BL/6N) were used for the analysis of CPN-9, WN1303R, WN1312, WN1315 and WN1316 pharmacokinetics. CPN-9 was suspended in 0.5% carboxymethyl cellulose (CMC)-Na (carmellose sodium, Maruishi Pharmaceutical Co., Ltd.), while WN1303R, WN1312 and WN1316 were dissolved in Milli-Q purified water (MQ water) and WN1315 was dissolved in 0.25 N HCl. CPN-9 (100 mg/kg body weight) and the four WN-compounds (50 mg/kg body weight) were injected intragastrically (i.g.). After 15 min, 30 min, 1 h, 2 h, 4 h, 6 h, and 8 h, blood was collected from heart of each mouse anesthetized with 2% isoflurane by inhalation or 4% halothane in a mixture of N2O/O2 (70∶30). Mice were thereafter perfused transcardially with physiological saline containing 10% heparin under anesthesia, and the whole brain was removed. Each blood sample was centrifuged at 1,000×g for 10 min at 4°C, and the serum fraction was collected. The brain was frozen in liquid nitrogen, and was cryopreserved until use.
We mixed serum with deproteinization buffer (0.05 M H2SO4, 2.5 M K2CO3, and […]), and collected the organic layer after centrifugation at 1,500×g for 10 min. The organic layer was mixed with 0.05 M H2SO4, and then, after centrifugation at 1,500×g for 10 min, the water layer was collected. After the addition of methanol, each serum derived sample was subjected to HPLC.
Mouse whole brain was homogenized with acetonitrile and left at −80°C for 10 min. The supernatant was collected after centrifugation at 10,000×g for 10 min at 4°C and was dried under vacuum. The dried sample was re-dissolved in methanol and mixed with two volumes of 10 mM phosphate buffer (pH7.0), after which the supernatant was collected by centrifugation at 10,000×g for 10 min at 4°C and then left at −80°C for 10 min. To further remove debris, the supernatant was filtered (0.45 µm filter), centrifuged (at 10,000×g for 10 min at 4°C), filtered (0.22 µm filter) and finally centrifuged again. Each sample solution from brain was subjected to HPLC.
The concentrations of CPN-9 and WN1316 in the serum and brain samples were determined by HPLC on a CAPCELL PAK C18 column (SHISEIDO) with 50% acetonitrile (CPN-9), 40% acetonitrile (WN1316) or 45% acetonitrile (WN1303R, WN1312, and WN1315) in 10 mM phosphate buffer (pH 7.0).

## Cc1cc(C)c(N(C)CC(=O)Nc2nc(-c3ccccn3)c[nH]2)c(C)c1 [WN1316, 2-[mesityl(methyl)amino]-N-[4-(pyridin-2-yl)-1H-imidazol-2-yl] acetamide trihydrochloride]
ALS(SOD1^H46R) mice; 1 µg/kg/day p.o. post-onset
  balance beam test: duration from onset to the day the mouse was unable to stay on the bar: 25.6 ± 0.9 days
ALS(SOD1^H46R) mice; 1 µg/kg/day p.o.
  survival interval after onset: 43.8 ± 5.5 days
ALS(SOD1^H46R) mice; 10 µg/kg/day p.o. post-onset
  balance beam test: duration from onset to the day the mouse was unable to stay on the bar: 26.3 ± 0.6 days
ALS(SOD1^H46R) mice; 10 µg/kg/day p.o.
  survival interval after onset: 43.9 ± 4.4 days
ALS(SOD1^H46R) mice; 100 µg/kg/day p.o. post-onset
  balance beam test: duration from onset to the day the mouse was unable to stay on the bar: 28.4 ± 0.8 days
ALS(SOD1^H46R) mice; 100 µg/kg/day p.o.
  survival interval after onset: 45.9 ± 6.0 days
ALS(SOD1^H46R) mice; 1, 10, 100 µg/kg/day, 12–24 weeks of age
  effect on mouse weight: did not affect mouse weight
ALS(SOD1^H46R) mice; 1–100 µg/kg/day p.o., vs vehicle
  prolongation of post-onset survival: 20–25%
ALS(SOD1^H46R) mice; 1–100 µg/kg/day, 21–22 weeks of age (late symptomatic stage), vs vehicle
  vertical pole climbing and grip strength: significant preservation of motor performance
ALS(SOD1^H46R) mice; 21 weeks of age (late symptomatic stage)
  gait on footprint analysis: short but still steady gait
ALS(SOD1^H46R) mice; WN1316-treated mice, data not shown
  autopsy findings of organs such as heart and kidney: no pathological abnormalities
[1]; C57BL/6N mice, intragastric, 50 mg/kg, n = 4, mean ± SD
  AUC0–8: Brain: 38.9±5.7 µg⋅h/g
[1]; WN1316 50 mg/kg vs CPN-9 100 mg/kg
  brain AUC0–8 relative to the level observed with CPN-9: about 39 fold
[1]; male, brain, read-out: Cmax in brain
  Cmax: 42.1 µM
[1]; male, mouse, brain / serum, oral 50 mg/kg, C57BL/6N, read-out: brain AUC0–8 relative to serum levels
  Kp: ~4
[1]; male, mouse, serum, po, C57BL/6N mice, intragastric, 50 mg/kg, n = 4, mean ± SD, read-out: AUC0–8: Serum
  AUC(0-t): 13600 ± 700 ng·h/mL
[1]; male, serum, read-out: Cmax in blood
  Cmax: 9.78 µM
[1]; mouse, in vivo
  BBB permeability (in words): prominent BBB permeability
[1]; oral 50 mg/kg, C57BL/6N
  clearance in both brain and serum: 8 h
